Laboratory results as given in paper PMC12102759 (Protein Science : A Publication of the Protein Society, 2025).
Like-named read-outs stand apart in the source and are kept apart here.

System: G3BP1 NFT2
Type: binding, human
Conditions: library DMS-CoV, bait G3BP1 NFT2, prey N, listed as aa = residue placed at this position, column sums to 1

Sequence: APRITFGGPSDSTGSN G14I (APRITFGGPSDSTISN)
- DMS PSSM value, G (position 14) (peptide APRITFGGPSDSTGSN): 0.0004999

Sequence: RNAPRITFGGPSDSTG I6A (RNAPRATFGGPSDSTG)
- DMS PSSM value, I (position 6) (peptide RNAPRITFGGPSDSTG): 0

Sequence: RNAPRITFGGPSDSTG P11E (RNAPRITFGGESDSTG)
- DMS PSSM value, P (position 11) (peptide RNAPRITFGGPSDSTG): 0

Sequence: RNAPRITFGGPSDSTG D13G (RNAPRITFGGPSGSTG)
- DMS PSSM value, D (position 13) (peptide RNAPRITFGGPSDSTG): 0

Sequence: RNAPRITFGGPSDSTG S14V (RNAPRITFGGPSDVTG)
- DMS PSSM value, S (position 14) (peptide RNAPRITFGGPSDSTG): 0

Sequence: RNAPRITFGGPSDSTG S14G (RNAPRITFGGPSDGTG)
- DMS PSSM value, S (position 14) (peptide RNAPRITFGGPSDSTG): 0

Sequence: RNAPRITFGGPSDSTG D13F (RNAPRITFGGPSFSTG)
- DMS PSSM value, D (position 13) (peptide RNAPRITFGGPSDSTG): 0

Sequence: RNAPRITFGGPSDSTG S12K (RNAPRITFGGPKDSTG)
- DMS PSSM value, S (position 12) (peptide RNAPRITFGGPSDSTG): 0

Sequence: RNAPRITFGGPSDSTG G10Q (RNAPRITFGQPSDSTG)
- DMS PSSM value, G (position 10) (peptide RNAPRITFGGPSDSTG): 0

Sequence: RNAPRITFGGPSDSTG S12R (RNAPRITFGGPRDSTG)
- DMS PSSM value, S (position 12) (peptide RNAPRITFGGPSDSTG): 0

Sequence: RNAPRITFGGPSDSTG G9Q (RNAPRITFQGPSDSTG)
- DMS PSSM value, G (position 9) (peptide RNAPRITFGGPSDSTG): 0

Sequence: APRITFGGPSDSTGSN D11Q (APRITFGGPSQSTGSN)
- DMS PSSM value, D (position 11) (peptide APRITFGGPSDSTGSN): 0.007406

Sequence: APRITFGGPSDSTGSN G8W (APRITFGWPSDSTGSN)
- DMS PSSM value, G (position 8) (peptide APRITFGGPSDSTGSN): 0

Sequence: APRITFGGPSDSTGSN G7K (APRITFKGPSDSTGSN)
- DMS PSSM value, G (position 7) (peptide APRITFGGPSDSTGSN): 0

Sequence: RNAPRITFGGPSDSTG P4Q (RNAQRITFGGPSDSTG)
- DMS PSSM value, P (position 4) (peptide RNAPRITFGGPSDSTG): 0.08846

Sequence: RNAPRITFGGPSDSTG P4E (RNAERITFGGPSDSTG)
- DMS PSSM value, P (position 4) (peptide RNAPRITFGGPSDSTG): 0.9115

Sequence: RNAPRITFGGPSDSTG P11N (RNAPRITFGGNSDSTG)
- DMS PSSM value, P (position 11) (peptide RNAPRITFGGPSDSTG): 0

Sequence: APRITFGGPSDSTGSN F6Q (APRITQGGPSDSTGSN)
- DMS PSSM value, F (position 6) (peptide APRITFGGPSDSTGSN): 0

Sequence: RNAPRITFGGPSDSTG A3D (RNDPRITFGGPSDSTG)
- DMS PSSM value, A (position 3) (peptide RNAPRITFGGPSDSTG): 0.1526

Sequence: RNAPRITFGGPSDSTG R5K (RNAPKITFGGPSDSTG)
- DMS PSSM value, R (position 5) (peptide RNAPRITFGGPSDSTG): 0.0001577

Sequence: RNAPRITFGGPSDSTG P11I (RNAPRITFGGISDSTG)
- DMS PSSM value, P (position 11) (peptide RNAPRITFGGPSDSTG): 0

Sequence: RNAPRITFGGPSDSTG G16L (RNAPRITFGGPSDSTL)
- DMS PSSM value, G (position 16) (peptide RNAPRITFGGPSDSTG): 0

Sequence: APRITFGGPSDSTGSN T5N (APRINFGGPSDSTGSN)
- DMS PSSM value, T (position 5) (peptide APRITFGGPSDSTGSN): 0

Sequence: APRITFGGPSDSTGSN A1Y (YPRITFGGPSDSTGSN)
- DMS PSSM value, A (position 1) (peptide APRITFGGPSDSTGSN): 0.04618

Sequence: APRITFGGPSDSTGSN F6H (APRITHGGPSDSTGSN)
- DMS PSSM value, F (position 6) (peptide APRITFGGPSDSTGSN): 0

Sequence: APRITFGGPSDSTGSN P2W (AWRITFGGPSDSTGSN)
- DMS PSSM value, P (position 2) (peptide APRITFGGPSDSTGSN): 0

Sequence: RNAPRITFGGPSDSTG A3E (RNEPRITFGGPSDSTG)
- DMS PSSM value, A (position 3) (peptide RNAPRITFGGPSDSTG): 0.2371

Sequence: APRITFGGPSDSTGSN G14R (APRITFGGPSDSTRSN)
- DMS PSSM value, G (position 14) (peptide APRITFGGPSDSTGSN): 0.002725

Sequence: RNAPRITFGGPSDSTG G9I (RNAPRITFIGPSDSTG)
- DMS PSSM value, G (position 9) (peptide RNAPRITFGGPSDSTG): 0

Sequence: RNAPRITFGGPSDSTG T7A (RNAPRIAFGGPSDSTG)
- DMS PSSM value, T (position 7) (peptide RNAPRITFGGPSDSTG): 0

Sequence: APRITFGGPSDSTGSN G14Y (APRITFGGPSDSTYSN)
- DMS PSSM value, G (position 14) (peptide APRITFGGPSDSTGSN): 0.003136

Sequence: RNAPRITFGGPSDSTG S14M (RNAPRITFGGPSDMTG)
- DMS PSSM value, S (position 14) (peptide RNAPRITFGGPSDSTG): 0.3095

Sequence: APRITFGGPSDSTGSN T13N (APRITFGGPSDSNGSN)
- DMS PSSM value, T (position 13) (peptide APRITFGGPSDSTGSN): 0.01901

Sequence: APRITFGGPSDSTGSN P9G (APRITFGGGSDSTGSN)
- DMS PSSM value, P (position 9) (peptide APRITFGGPSDSTGSN): 0.003052

Sequence: APRITFGGPSDSTGSN T13E (APRITFGGPSDSEGSN)
- DMS PSSM value, T (position 13) (peptide APRITFGGPSDSTGSN): 0.0383

Sequence: RNAPRITFGGPSDSTG D13Q (RNAPRITFGGPSQSTG)
- DMS PSSM value, D (position 13) (peptide RNAPRITFGGPSDSTG): 0

Sequence: APRITFGGPSDSTGSN P2M (AMRITFGGPSDSTGSN)
- DMS PSSM value, P (position 2) (peptide APRITFGGPSDSTGSN): 0

Sequence: APRITFGGPSDSTGSN S12P (APRITFGGPSDPTGSN)
- DMS PSSM value, S (position 12) (peptide APRITFGGPSDSTGSN): 0

Sequence: APRITFGGPSDSTGSN S12F (APRITFGGPSDFTGSN)
- DMS PSSM value, S (position 12) (peptide APRITFGGPSDSTGSN): 0.0072

Sequence: RNAPRITFGGPSDSTG A3K (RNKPRITFGGPSDSTG)
- DMS PSSM value, A (position 3) (peptide RNAPRITFGGPSDSTG): 0

Sequence: RNAPRITFGGPSDSTG D13P (RNAPRITFGGPSPSTG)
- DMS PSSM value, D (position 13) (peptide RNAPRITFGGPSDSTG): 1

Sequence: APRITFGGPSDSTGSN P2S (ASRITFGGPSDSTGSN)
- DMS PSSM value, P (position 2) (peptide APRITFGGPSDSTGSN): 0.0005858

Sequence: RNAPRITFGGPSDSTG R5T (RNAPTITFGGPSDSTG)
- DMS PSSM value, R (position 5) (peptide RNAPRITFGGPSDSTG): 0.001368

Sequence: APRITFGGPSDSTGSN P9N (APRITFGGNSDSTGSN)
- DMS PSSM value, P (position 9) (peptide APRITFGGPSDSTGSN): 0

Sequence: RNAPRITFGGPSDSTG F8P (RNAPRITPGGPSDSTG)
- DMS PSSM value, F (position 8) (peptide RNAPRITFGGPSDSTG): 0
